Assay results taken from US10669261B2, “Heteroarylhydroxypyrimidinones as agonists of the APJ receptor” (BRISTOL-MYERS SQUIBB COMPANY, priority 2015, dated 2020).

The compounds below were run against T1, human APJ receptor (Homo sapiens, UniProt P35414) (assay: Intracellular cAMP accumulation assay (APJ hcAMP, HTRF)). Settings: HEK293 cells stably expressing human APJ receptor; inhibition of forskolin-mediated cAMP production; stated at end of example; read-out: Human APJ cAMP Potency Range.
T1 construct: expressed in transfected cells
T1 sequence (P35414 1-380): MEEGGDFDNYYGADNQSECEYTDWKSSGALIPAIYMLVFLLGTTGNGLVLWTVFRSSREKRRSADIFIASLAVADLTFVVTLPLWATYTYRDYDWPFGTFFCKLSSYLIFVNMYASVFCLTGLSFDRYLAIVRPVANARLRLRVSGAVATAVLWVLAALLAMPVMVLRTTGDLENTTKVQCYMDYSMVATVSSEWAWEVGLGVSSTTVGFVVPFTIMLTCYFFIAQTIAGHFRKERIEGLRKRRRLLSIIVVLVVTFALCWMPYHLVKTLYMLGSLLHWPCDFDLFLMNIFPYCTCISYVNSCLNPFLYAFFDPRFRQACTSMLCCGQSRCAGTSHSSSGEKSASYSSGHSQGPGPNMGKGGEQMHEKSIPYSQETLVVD
Format: cell-based
Outline: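 Inhibition of forskolin (2 μM)-driven cAMP, with […], measured by HTRF after 30 min room-temperature compound exposure of stably transfected HEK293 cells. cAMP read from a standard curve; variable-slope fit gives EC50, and maximal inhibition is normalised to (Pyr1)apelin-13 as 100%.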

EC50 [nM] | SMILES
0.01 to 10 | CCCCc1nc(=O)c(-c2nnc(Cc3noc4ccccc34)o2)c(O)n1-c1c(C2CC2)cccc1C1CC1 [Example 27, 5-(5-(Benzo[d]isoxazol-3-ylmethyl)-1,3,4-oxadiazol-2-yl)-2-butyl-1-(2,6-dicyclopropylphenyl)-6-hydroxypyrimidin-4(1H)-one]
10 to 100 | CCCCc1nc(=O)c(-c2nnc(Cc3ccc(Cl)cc3)o2)c(O)n1-c1c(OC2CC2)cccc1OC1CC1 [Example 29, 2-butyl-5-(5-(4-chlorobenzyl)-1,3,4-oxadiazol-2-yl)-1-(2,6-dicyclopropoxyphenyl)-6-hydroxypyrimidin-4(1H)-one]

Same assay, conditions: Table 1; HEK293 cells stably expressing human APJ receptor; read-out: hAPJ cAMP EC50 Potency range

EC50 [nM] | SMILES
0.01 to 10 | COc1cccc(OC)c1-n1c(COC(C)C)nc(=O)c(-c2nnc(Cc3ccc(Cl)cc3)o2)c1O [Example 36, 5-{5-[(4-chlorophenyl)methyl]-1,3,4-oxadiazol-2-yl}-1-(2,6-dimethoxyphenyl)-6-hydroxy-2-[(propan-2-yloxy)methyl]-1,4-dihydropyrimidin-4-one]
0.01 to 10 | CCCCc1nc(=O)c(-c2nnc(Cc3noc4ccccc34)o2)c(O)n1-c1c(OC2CC2)cccc1OC1CC1 [Example 30, 5-[5-(1,2-benzoxazol-3-ylmethyl)-1,3,4-oxadiazol-2-yl]-2-butyl-1-(2,6-dicyclopropoxyphenyl)-6-hydroxy-1,4-dihydropyrimidin-4-one]
0.01 to 10 | COc1cccc(OC)c1-n1c(C2CCCC2)nc(=O)c(-c2nnc(Cc3ccc(C)nc3)o2)c1O [Example 68, 2-cyclopentyl-1-(2,6-dimethoxyphenyl)-6-hydroxy-5-{5-[(6-methylpyridin-3-yl)methyl]-1,3,4-oxadiazol-2-yl}-1,4-dihydropyrimidin-4-one]
0.01 to 10 | COc1cccc(OC)c1-n1c(CCC2CC2)nc(=O)c(-c2nnc(CNC(=O)c3cccnc3)o2)c1O [Example 56, N-({5-[2-(2-cyclopropylethyl)-1-(2,6-dimethoxyphenyl)-6-hydroxy-4-oxo-1,4-dihydropyrimidin-5-yl]-1,3,4-oxadiazol-2-yl}methyl)pyridine-3-carboxamide]
0.01 to 10 | CCCCc1nc(=O)c(-c2nnc(CN3CCCC3=O)o2)c(O)n1-c1c(OC)cccc1OC [Example 8, 2-butyl-1-(2,6-dimethoxyphenyl)-6-hydroxy-5-{5-[(2-oxopyrrolidin-1-yl)methyl]-1,3,4-oxadiazol-2-yl}-1,4-dihydropyrimidin-4-one]
0.01 to 10 | COc1cccc(OC)c1-n1c(C2CCCC2)nc(=O)c(-c2nnc(Cc3ccc(Cl)cn3)o2)c1O [Example 66, 5-{5-[(5-chloropyridin-2-yl)methyl]-1,3,4-oxadiazol-2-yl}-2-cyclopentyl-1-(2,6-dimethoxyphenyl)-6-hydroxy-1,4-dihydropyrimidin-4-one]
0.01 to 10 | [2H]C([2H])([2H])Oc1cccc(OC([2H])([2H])[2H])c1-n1c(CCCC)nc(=O)c(-c2nnc(Cc3ccc(Cl)cc3)o2)c1O [Example 49, 1-[2,6-bis(^2H3)methoxyphenyl]-2-butyl-5-{5-[(4-chlorophenyl)methyl]-1,3,4-oxadiazol-2-yl}-6-hydroxy-1,4-dihydropyrimidin-4-one]
0.01 to 10 | CCOCc1nc(=O)c(-c2nnc(Cc3ccc(Cl)cc3)o2)c(O)n1-c1c(CC)cccc1CC [Example 37, 5-{5-[(4-chlorophenyl)methyl]-1,3,4-oxadiazol-2-yl}-1-(2,6-diethylphenyl)-2-(ethoxymethyl)-6-hydroxy-1,4-dihydropyrimidin-4-one]
0.01 to 10 | COc1cccc(OC)c1-n1c(COC(C)C)nc(=O)c(-c2nnc(Cc3noc4ccccc34)o2)c1O [Example 34, 5-[5-(1,2-benzoxazol-3-ylmethyl)-1,3,4-oxadiazol-2-yl]-1-(2,6-dimethoxyphenyl)-6-hydroxy-2-[(propan-2-yloxy)methyl]-1,4-dihydropyrimidin-4-one]
0.01 to 10 | COc1cccc(OC)c1-n1c(C2CCCC2)nc(=O)c(-c2nnc(CN3CCCC3=O)o2)c1O [Example 64, 2-cyclopentyl-1-(2,6-dimethoxyphenyl)-6-hydroxy-5-{5-[(2-oxopyrrolidin-1-yl)methyl]-1,3,4-oxadiazol-2-yl}-1,4-dihydropyrimidin-4-one]

Same assay, conditions: Table 2; HEK293 cells stably expressing human APJ receptor; read-out: hAPJ cAMP EC50 Potency range

EC50 [nM] | SMILES
10 to 100 | CCCCc1nc(O)c(-c2nnc(Cc3ccc(Cl)cn3)o2)c(=O)n1[C@H](COC)c1ccccc1 [Example 99]
10 to 100 | CCCCc1nc(O)c(-c2nnc(Cc3csc(C)n3)o2)c(=O)n1[C@@H](C)c1ccc(F)cc1 [Example 95, 2-butyl-3-[(1S)-1-(4-fluorophenyl)ethyl]-6-hydroxy-5-{5-[(2-methyl-1,3-thiazol-4-yl)methyl]-1,3,4-oxadiazol-2-yl}-3,4-dihydropyrimidin-4-one]
100 to 300 | CCCCc1nc(O)c(-c2nnc(Cc3ccc(Cl)cc3)o2)c(=O)n1[C@@H](C)C1CC1 [Example 77, 2-butyl-5-{5-[(4-chlorophenyl)methyl]-1,3,4-oxadiazol-2-yl}-3-[(1S)-1-cyclopropylethyl]-6-hydroxy-3,4-dihydropyrimidin-4-one]
0.01 to 10 | CCCCc1nc(O)c(-c2nnc(Cc3csc(C)n3)o2)c(=O)n1[C@H](C)c1ccccc1OC [Example 79, 2-butyl-6-hydroxy-3-[(1R)-1-(2-methoxyphenyl)ethyl]-5-{5-[(2-methyl-1,3-thiazol-4-yl)methyl]-1,3,4-oxadiazol-2-yl}-3,4-dihydropyrimidin-4-one]
100 to 300 | CCCCc1nc(O)c(-c2nnc(Cc3noc4ccccc34)o2)c(=O)n1C(C)c1cccnc1 (stereo not shown) [Example 121, 5-{5-[(1,2-benzoxazol-3-yl)methyl]-1,3,4-oxadiazol-2-yl}-2-butyl-6-hydroxy-3-[1-(pyridin-3-yl)ethyl]-3,4-dihydropyrimidin-4-one]
100 to 300 | CCCCc1nc(O)c(-c2nnc(Cc3noc4ccccc34)o2)c(=O)n1[C@@H](C)c1ccc(OC)cc1 [Example 102, 5-{5-[(1,2-benzoxazol-3-yl)methyl]-1,3,4-oxadiazol-2-yl}-2-butyl-6-hydroxy-3-[(1S)-1-(4-methoxyphenyl)ethyl]-3,4-dihydropyrimidin-4-one]
0.01 to 10 | CCCCc1nc(O)c(-c2nnc(Cc3ccc(Cl)cn3)o2)c(=O)n1[C@@H](C)c1ccc(F)cc1 [Example 98, 2-butyl-5-{5-[(5-chloropyridin-2-yl)methyl]-1,3,4-oxadiazol-2-yl}-3-[(1S)-1-(4-fluorophenyl)ethyl]-6-hydroxy-3,4-dihydropyrimidin-4-one]
10 to 100 | CCCCc1nc(O)c(-c2nnc(Cc3ccc(Cl)cc3)o2)c(=O)n1[C@H](CC)c1ccccc1 [Example 89, 2-butyl-5-{5-[(4-chlorophenyl)methyl]-1,3,4-oxadiazol-2-yl}-6-hydroxy-3-[(1R)-1-phenylpropyl]-3,4-dihydropyrimidin-4-one]
10 to 100 | CCCCc1nc(O)c(-c2nnc(Cc3noc4ccccc34)o2)c(=O)n1C(C)c1ccncc1 (stereo not shown) [Example 110, 5-{5-[(1,2-benzoxazol-3-yl)methyl]-1,3,4-oxadiazol-2-yl}-2-butyl-6-hydroxy-3-[1-(pyridin-4-yl)ethyl]-3,4-dihydropyrimidin-4-one]
0.01 to 10 | CCCCc1nc(O)c(-c2nnc(Cc3ccc(Cl)cn3)o2)c(=O)n1[C@@H](C)c1cccc(OC)c1 [Example 116, 2-butyl-5-{5-[(5-chloropyridin-2-yl)methyl]-1,3,4-oxadiazol-2-yl}-6-hydroxy-3-[(1S)-1-(3-methoxyphenyl)ethyl]-3,4-dihydropyrimidin-4-one]
0.01 to 10 | CCCCc1nc(O)c(-c2nnc(Cc3ccc(Cl)cn3)o2)c(=O)n1C(C)c1ccncc1 (stereo not shown) [Example 109, 2-butyl-5-{5-[(5-chloropyridin-2-yl)methyl]-1,3,4-oxadiazol-2-yl}-6-hydroxy-3-[1-(pyridin-4-yl)ethyl]-3,4-dihydropyrimidin-4-one]
10 to 100 | CCCCc1nc(O)c(-c2nnc(Cc3noc4ccccc34)o2)c(=O)n1[C@@H](CCC)c1ccccc1 [Example 107, 5-{5-[(1,2-benzoxazol-3-yl)methyl]-1,3,4-oxadiazol-2-yl}-2-butyl-6-hydroxy-3-[(1S)-1-phenylbutyl]-3,4-dihydropyrimidin-4-one]
10 to 100 | CCCCc1nc(O)c(-c2nnc(Cc3ccc(Cl)cc3)o2)c(=O)n1[C@H](C)c1ccccc1OC [Example 81, 2-butyl-5-{5-[(4-chlorophenyl)methyl]-1,3,4-oxadiazol-2-yl}-6-hydroxy-3-[(1R)-1-(2-methoxyphenyl)ethyl]-3,4-dihydropyrimidin-4-one]
10 to 100 | CCCCc1nc(O)c(-c2nnc(Cc3csc(C)n3)o2)c(=O)n1[C@@H](CCC)c1ccccc1 [Example 106, 2-butyl-6-hydroxy-5-{5-[(2-methyl-1,3-thiazol-4-yl)methyl]-1,3,4-oxadiazol-2-yl}-3-[(1S)-1-phenylbutyl]-3,4-dihydropyrimidin-4-one]
10 to 100 | CCCCc1nc(O)c(-c2nnc(Cc3ccc(Cl)cn3)o2)c(=O)n1C(C)c1cccnc1 (stereo not shown) [Example 123, 2-butyl-5-{5-[(5-chloropyridin-2-yl)methyl]-1,3,4-oxadiazol-2-yl}-6-hydroxy-3-[1-(pyridin-3-yl)ethyl]-3,4-dihydropyrimidin-4-one]
100 to 300 | CCCCc1nc(O)c(-c2nnc(Cc3csc(C)n3)o2)c(=O)n1[C@H](C)C1CC1 [Example 80, 2-butyl-3-[(1R)-1-cyclopropylethyl]-6-hydroxy-5-{5-[(2-methyl-1,3-thiazol-4-yl)methyl]-1,3,4-oxadiazol-2-yl}-3,4-dihydropyrimidin-4-one]
